Laboratory results reported in patent publication US10624342B2, “Synergistic weed control from applications of haloxyfop and ALS inhibitor herbicides” (priority 2014, dated 2020).
“And” between values parts separate entries of the source, which are not always exact repeats. Equal entries are not always repeated.

Key:
Assay type in all cases: in vivo
[1] = tested on: barnyardgrass, Echinochloa crus-galli; assay: Field trial in rice, foliar post-emergence visual weed control: barnyardgrass; details: ECHCG
Description: (§1) Field trials were conducted in Taiwan, China and Colombia with applications made in the area of naturally occurring weed populations. All treatments were applied using a randomized complete block trial design, with 3 to 4 replications per treatment. Plot size varied and was 1-6 meters×2-12 meters (width×length). Rice was seeded into the plots, and the rice crop was maintained as a normal commercial crop with appropriate fertilizer and maintenance treatments as needed. Rice size at application varied from the 2 to 4 leaf stage, and weeds were at the 2 to 5 leaf stage. All treatments were foliar applied as post-emergence treatments using backpack sprayers with compressed air or carbon dioxide (CO2) propellant. Spray pressure varied from 25 to 35 pounds per square inch (psi). Spray nozzles used were flat fan, with 1 to 4 nozzle booms used to apply from 200 to 450 L/ha of water as spray diluent. All treatments were mixed in water at appropriately formulated product rates to achieve the desired rates as shown based on a unit area of application (hectare). Commercially available products were used to make all applications, consisting of FENCER® 250D and BENGALA® 250D (25 grams active ingredient per liter (g ai/L) penoxsulam in an oil dispersion formulation); GALLANT™ SUPER and VERDICT™ SUPER EC (108 g ai/L haloxyfop-R-methyl in an emulsifiable concentrate formulation); GULLIVER® (500 grams active ingredient per kilograms (g ai/kg) WP (wettable powder)) and NOMINEE® SL (100 g ai/L bispyribac-sodium wettable powder).
(§2) Treatments consisted of haloxyfop-R-methyl and an ALS mode of action herbicide (penoxsulam, bispyribac-sodium, bensulfuron-methyl, or azimsulfuron), applied alone or in combination.
(§3) The treated plots and control plots were rated blind at various intervals after application. Ratings were based on a scale of 0-100%, as discussed above, wherein 0% indicates complete growth of the undesired vegetation and 100% indicates complete prevention of the undesired vegetation.
(§4) Colby's equation was used to determine the herbicidal effects expected from the mixtures, as described above. The results were measured at the evaluation intervals provided in Tables 1-5 after the first application of the compositions. […] The combinations tested, application rates and ratios employed, plant species tested, and results are included in Tables 1-5 below.
(§5) Colby's equation was used to determine the herbicidal effects expected from the mixtures (S. R. Colby, Calculating Synergistic and Antagonistic Responses of Herbicide Combinations, WEEDS 15, p. 22 (1967)). A t-test (alpha=0.05) between Colby predictions and observed combinations was used to test for significant differences indicating synergy or antagonism using replicate data. The results presented in Tables 1-5 were significant according to the described criteria.

[2] = tested on: Chinese sprangletop, Leptochloa chinensis; assay: Field trial in rice, foliar post-emergence visual weed control: Chinese sprangletop; details: LEFCH
Description: as §1, §2, §3, §4, §5

[3] = tested on: small flower flatsedge, Cyperus difformis; assay: Field trial in rice, foliar post-emergence visual weed control: small flower flatsedge; details: CYPDI; for % Visual Weed Control: 7DAA; for Mean % weed control: 14DAA
Description: as §1, §2, §3, §4, §5

[4] = tested on: crabgrass, Digitaria horizontalis; assay: Field trial in rice, foliar post-emergence visual weed control: crabgrass; details: DIGHO
Description: as §1, §2, §3, §4, §5

[5] = tested on: rice flatsedge, Cyperus iria; assay: Field trial in rice, foliar post-emergence visual weed control: rice flatsedge; details: CYPIR
Description: as §1, §2, §3, §4, §5

[6] = tested on: itch grass, Rottboellia exaltata; assay: Field trial in rice, foliar post-emergence visual weed control: itch grass; details: ROOEX
Description: as §1, §2, §3, §4, §5

[7] = tested on: bullgrass, Eleusine indica; assay: Field trial in rice, foliar post-emergence visual weed control: bullgrass; details: ELEIN, 7DAA
Description: as §1, §2, §3, §4
as §5, with “The results presented in Tables 1-5 were significant according to the described criteria.” left out

[8] = tested on: monochoria, Monochoria vaginalis; assay: Field trial in rice, foliar post-emergence visual weed control: monochoria; details: MOOVA, 7DAA
Description: as §1, with “Commercially available products were used to make all applications, consisting of FENCER® 250D and BENGALA® 250D (25 grams active ingredient per liter (g ai/L) penoxsulam in an oil dispersion formulation); GALLANT™ SUPER and VERDICT™ SUPER EC (108 g ai/L haloxyfop-R-methyl in an emulsifiable concentrate formulation); GULLIVER® (500 grams active ingredient per kilograms (g ai/kg) WP (wettable powder)) and NOMINEE® SL (100 g ai/L bispyribac-sodium wettable powder).” left out
Colby's equation was used to determine the herbicidal effects expected from the mixtures, as described above. The results were measured at the evaluation intervals provided in Tables 1-5 after the first application of the compositions. […]

Structure (SMILES): COc1cc(OC)nc(NC(=O)NS(=O)(=O)c2c(-c3nnn(C)n3)cnn2C)n1 [Azimsulfuron, 1-(4,6-dimethoxypyrimidin-2-yl)-3-[1-methyl-4-(2-methyl-2H-tetrazol-5-yl)pyrazol-5-ylsulfonyl]urea]
- Mean % weed control ([1]; 7DAA, 40 g ai/ha alone): 89.0%
- Mean % weed control ([2]; 14DAA, 10 g ai/ha alone): 0.0%
- Mean % weed control ([2]; 14DAA, 20 g ai/ha alone): 0.0%

Structure (SMILES): COC(=O)c1ccccc1CS(=O)(=O)NC(=O)Nc1nc(OC)cc(OC)n1 [Bensulfuron-Methyl, bensulfuron-methyl]
- % Visual Weed Control ([1]; 28DAA, 20 g ai/ha alone (Table 4)): 0%
- % Visual Weed Control ([1]; 28DAA, 40 g ai/ha alone (Table 4)): 23%
- % Visual Weed Control ([3]; 10 g ai/ha alone): 90%
- % Visual Weed Control ([3]; 20 g ai/ha alone): 92%

Structure (SMILES): COc1cc(OC)nc(Oc2cccc(Oc3nc(OC)cc(OC)n3)c2C(=O)O)n1 [Bispyribac-Sodium, bispyribac-sodium]
- Mean % weed control ([1]; 7DAA, 20 g ai/ha alone): 53.3%
- Mean % weed control ([1]; 7DAA, 40 g ai/ha alone): 76.7%
- Mean % weed control ([1]; 14DAA, 20 g ai/ha alone): 35.0%
- Mean % weed control ([1]; 28DAA, 20 g ai/ha alone): 20.0%
- Mean % weed control ([1]; 28DAA, 40 g ai/ha alone): 88.3%

Structure (SMILES): COC(=O)C(C)Oc1ccc(Oc2ncc(C(F)(F)F)cc2Cl)cc1 [Haloxyfop-methyl (R), haloxyfop-R-methyl]
- Mean % weed control ([4]; 7DAA, 8 g ai/ha alone): 71.7%
- Mean % weed control ([4]; 15DAA, 4 g ai/ha alone): 35.0%
- Mean % weed control ([5]; 7DAA, 8 g ai/ha alone): 0.0%
- Mean % weed control ([5]; 7DAA, 16 g ai/ha alone): 0.0%
- Mean % weed control ([5]; 15DAA, 8 g ai/ha alone): 0.0%
- Mean % weed control ([5]; 15DAA, 16 g ai/ha alone): 11.3%
- Mean % weed control ([6]; 7DAA, 8 g ai/ha alone): 11.7%
- Mean % weed control ([6]; 15DAA, 4 g ai/ha alone): 0.0%
- Mean % weed control ([6]; 15DAA, 16 g ai/ha alone): 77.5%
- Mean % weed control ([6]; 28DAA, 4 g ai/ha alone): 0.0%
- Mean % weed control ([7]; 4 g ai/ha alone): 21.7%
- Mean % weed control ([1]; 7DAA, 4 g ai/ha alone): 0.0%
- Mean % weed control ([1]; 7DAA, 8 g ai/ha alone): 0.0%
- Mean % weed control ([1]; 7DAA, 27 g ai/ha alone): 0.0%
- Mean % weed control ([1]; 14DAA, 8 g ai/ha alone): 0.0%
- Mean % weed control ([1]; 21DAA, 27 g ai/ha alone): 0.0%
- Mean % weed control ([1]; 28DAA, 4 g ai/ha alone): 0.0%
- % Visual Weed Control ([1]; 28DAA, 4 g ai/ha alone (Table 4)): 0%
- Mean % weed control ([1]; 28DAA, 8 g ai/ha alone): 0.0% and 6.7%
- % Visual Weed Control ([1]; 28DAA, 8 g ai/ha alone (Table 4)): 0%
- Mean % weed control ([1]; 28DAA, 13.5 g ai/ha alone): 0.0%
- Mean % weed control ([1]; 28DAA, 27 g ai/ha alone): 0.0%
- Mean % weed control ([8]; 16 g ai/ha alone): 0.0%
- Mean % weed control ([2]; 7DAA, 8 g ai/ha alone): 0.0%
- Mean % weed control ([2]; 14DAA, 2 g ai/ha alone): 0.0%
- Mean % weed control ([2]; 14DAA, 4 g ai/ha alone): 0.0%
- Mean % weed control ([2]; 28DAA, 8 g ai/ha alone): 0.0%
- % Visual Weed Control ([3]; 2 g ai/ha alone): 0%
- % Visual Weed Control ([3]; 8 g ai/ha alone): 0%
- Mean % weed control ([3]; 16 g ai/ha alone): 0.0%
- Mean % weed control ([3]; 32 g ai/ha alone): 0.0%

Structure (SMILES): COc1cnc(OC)n2nc(NS(=O)(=O)c3c(OCC(F)F)cccc3C(F)(F)F)nc12 [Penoxsulam]
- Mean % weed control ([4]; 7DAA, 8 g ai/ha alone): 0.0%
- Mean % weed control ([4]; 7DAA, 16 g ai/ha alone): 0.0%
- Mean % weed control ([4]; 15DAA, 8 g ai/ha alone): 0.0%
- Mean % weed control ([4]; 15DAA, 16 g ai/ha alone): 0.0%
- Mean % weed control ([4]; 15DAA, 32 g ai/ha alone): 0.0%
- Mean % weed control ([5]; 7DAA, 8 g ai/ha alone): 62.0%
- Mean % weed control ([5]; 7DAA, 32 g ai/ha alone): 87.0%
- Mean % weed control ([5]; 15DAA, 8 g ai/ha alone): 85.0%
- Mean % weed control ([6]; 7DAA, 32 g ai/ha alone): 3.3%
- Mean % weed control ([6]; 15DAA, 8 g ai/ha alone): 0.0%
- Mean % weed control ([6]; 28DAA, 8 g ai/ha alone): 0.0%
- Mean % weed control ([6]; 28DAA, 16 g ai/ha alone): 12.5%
- Mean % weed control ([7]; 8 g ai/ha alone): 0.0%
- Mean % weed control ([7]; 16 g ai/ha alone): 0.0%
- Mean % weed control ([7]; 32 g ai/ha alone): 0.0%
- Mean % weed control ([1]; 7DAA, 10 g ai/ha alone): 63.3%
- Mean % weed control ([1]; 7DAA, 15 g ai/ha alone): 95.7%
- Mean % weed control ([1]; 21DAA, 15 g ai/ha alone): 93.3%
- Mean % weed control ([1]; 28DAA, 7.5 g ai/ha alone): 53.3%
- Mean % weed control ([1]; 28DAA, 10 g ai/ha alone): 56.7%
- Mean % weed control ([1]; 28DAA, 15 g ai/ha alone): 91.7%
- Mean % weed control ([1]; 28DAA, 30 g ai/ha alone): 98.3%
- Mean % weed control ([8]; 5 g ai/ha alone): 90.0%
- Mean % weed control ([2]; 7DAA, 10 g ai/ha alone): 0.0%
- Mean % weed control ([2]; 7DAA, 20 g ai/ha alone): 0.0%
- Mean % weed control ([2]; 7DAA, 30 g ai/ha alone): 0.0%
- Mean % weed control ([2]; 14DAA, 10 g ai/ha alone): 0.0%
- Mean % weed control ([2]; 14DAA, 20 g ai/ha alone): 0.0%
- Mean % weed control ([2]; 14DAA, 30 g ai/ha alone): 0.0%
- Mean % weed control ([2]; 28DAA, 30 g ai/ha alone): 0.0%
- Mean % weed control ([3]; 10 g ai/ha alone): 93.3%
